For assay [1], the system named is HEK293. The assay can be described thus: optical interference in Abeta FP readout, dose response, artefact control for IDE activator project, biochemical, fluorescence polarization (AID 588442). It counts as functional, cell-based. The settings on record: Homo sapiens.
Assay [2] can be described thus: HepG2 cell cytotoxicity, dose response, cytotoxicity control for non-replicating M. tuberculosis project (AID 489018). The settings on record: Mycobacterium tuberculosis. It counts as functional.
Assay [3] has as its system HEK293. Nature of the assay: membrane integrity loss in HEK cells – cell-based, fluorescence, cytotoxicity control for IDE activator project, dose response (AID 588440).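 Note: cytotoxicity by LDH release measuring loss of membrane integrity.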 The format is functional. The settings on record: Homo sapiens.
The target in assay [4] is T1, Insulin-degrading enzyme (Homo sapiens, UniProt P14735).
T1 sequence (P14735 whole entry): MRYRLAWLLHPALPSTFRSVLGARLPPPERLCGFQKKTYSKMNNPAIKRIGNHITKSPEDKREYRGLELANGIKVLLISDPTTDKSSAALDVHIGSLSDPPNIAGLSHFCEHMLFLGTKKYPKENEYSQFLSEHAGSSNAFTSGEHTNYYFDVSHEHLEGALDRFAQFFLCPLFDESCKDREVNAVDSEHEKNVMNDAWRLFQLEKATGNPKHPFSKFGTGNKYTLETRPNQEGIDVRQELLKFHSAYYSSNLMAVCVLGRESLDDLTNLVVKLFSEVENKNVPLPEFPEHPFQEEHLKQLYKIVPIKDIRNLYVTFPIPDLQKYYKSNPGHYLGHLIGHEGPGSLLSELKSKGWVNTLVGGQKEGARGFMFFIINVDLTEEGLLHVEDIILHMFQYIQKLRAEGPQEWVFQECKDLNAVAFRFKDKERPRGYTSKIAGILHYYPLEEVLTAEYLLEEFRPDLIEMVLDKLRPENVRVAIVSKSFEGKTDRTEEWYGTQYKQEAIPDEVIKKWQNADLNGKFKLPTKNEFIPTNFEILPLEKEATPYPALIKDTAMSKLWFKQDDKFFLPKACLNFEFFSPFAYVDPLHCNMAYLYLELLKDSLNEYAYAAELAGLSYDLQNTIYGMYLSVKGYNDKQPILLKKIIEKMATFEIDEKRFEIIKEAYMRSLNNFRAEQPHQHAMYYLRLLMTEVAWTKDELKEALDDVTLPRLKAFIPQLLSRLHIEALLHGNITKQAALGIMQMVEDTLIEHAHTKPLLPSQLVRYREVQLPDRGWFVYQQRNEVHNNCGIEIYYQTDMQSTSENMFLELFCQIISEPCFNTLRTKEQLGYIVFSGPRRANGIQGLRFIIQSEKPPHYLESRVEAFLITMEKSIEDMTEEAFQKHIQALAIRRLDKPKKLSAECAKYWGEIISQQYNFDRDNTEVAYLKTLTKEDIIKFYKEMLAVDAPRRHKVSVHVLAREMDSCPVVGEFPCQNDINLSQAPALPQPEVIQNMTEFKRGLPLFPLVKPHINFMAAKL
The assay can be described thus: cellular IDE activation of Abeta substrate cleavage – fluorescence polarization, HEK cells, dose response (AID 588439). The format is functional, cell-based.

Assay [5] concerns the target T1, Insulin-degrading enzyme. Nature of the assay: recombinant IDE activation, cell-free – biochemical, fluorescence polarization, counter-screen for IDE activator project, dose response (AID 588681).
Assay [6] in a line: Vero E6 cell cytotoxicity, dose response, cytotoxicity control for non-replicating M. tuberculosis project, secondary assay (AID 492998). The format is functional, VeroE6. As to conditions: Vero C1008.
Assay [7] in a line: THP-1 cell cytotoxicity, dose response, cytotoxicity control for non-replicating M. tuberculosis project (AID 489025). The format is functional.
The next assay has as its target Melanocortin receptor 4 (Homo sapiens, UniProt P32245). It counts as functional, cell-based.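 Note: Cell-based assay with luminescence read-out, confirmatory dose-response testing for agonist activity of biased ligands at MC4R; human U2OS cells with tagged receptor and beta-arrestin; potency of agonists that increase receptor coupling to beta-arrestin.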
The nature of another assay: cells. It counts as functional.
Another assay deals with T2, X-box-binding protein 1 (Homo sapiens, UniProt P17861).
T2 sequence (P17861 whole entry): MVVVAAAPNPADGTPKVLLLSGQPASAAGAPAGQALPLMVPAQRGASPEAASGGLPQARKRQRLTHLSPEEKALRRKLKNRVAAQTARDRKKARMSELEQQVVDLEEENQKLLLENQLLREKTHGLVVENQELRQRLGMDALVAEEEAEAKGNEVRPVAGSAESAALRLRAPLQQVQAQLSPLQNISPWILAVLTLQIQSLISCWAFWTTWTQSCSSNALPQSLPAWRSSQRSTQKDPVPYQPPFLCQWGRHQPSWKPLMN
The format is functional, Cricetulus griseus.

Assay [8] is described as follows: reduction of Shn3 3'UTR-driven luciferase in osteoblasts – cell-based, Clone20 osteoblasts, firefly luciferase, cherry-picked, dose response (AID 624132).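 Note: firefly luciferase luminescence from reporter carrying the Shn3 3'UTR in osteoblasts.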 The format is functional.
The nature of assay [9]: non-specific 3'UTR reporter inhibition in Clone20-Shn3RL – cell-based, Renilla luciferase, cherry-picked, counter-screen for Shn3 inhibitor project, dose response (AID 624133). The format is functional. On the technique in general: The purpose of a counterscreen is to sort out artefacts and off-target activity.
Assay [10] in a line: loss of viability in HepG2 cells – cell-based, CellTiter-Glo, cherry-picked, cytotoxicity control for Shn3 inhibitor project, dose response (AID 624134). The format is functional.
Another assay deals with Protein Wnt-3a (Mus musculus, UniProt P27467). The assay can be described thus: antagonism of Wnt3a pathway luciferase reporter – Wnt-LIGHT cells, luminescence, selectivity assay for Gli-SUFU antagonist project, dose response (AID 651570).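 Note: Wnt-LIGHT reporter cells stimulated with conditioned medium from Wnt3a-producing cells.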 The format is functional. The settings on record: read-out: IC50_Mean. For orientation: In a reporter assay the amount or activity of a reporter protein is the signal.

A short description of assay [11]: blockers of CRF-binding protein–CRF-R2 complex – cell-based, uHTS hits, 384-well, dose response (AID 651639). It counts as functional, Homo sapiens. As to conditions: read-out: IC50_Mean.
The target in assay [12] is T3, Corticotropin-releasing factor receptor 2/Corticotropin-releasing factor-binding protein (Homo sapiens, UniProt P24387+Q13324).
T3 sequence (Q13324 whole entry): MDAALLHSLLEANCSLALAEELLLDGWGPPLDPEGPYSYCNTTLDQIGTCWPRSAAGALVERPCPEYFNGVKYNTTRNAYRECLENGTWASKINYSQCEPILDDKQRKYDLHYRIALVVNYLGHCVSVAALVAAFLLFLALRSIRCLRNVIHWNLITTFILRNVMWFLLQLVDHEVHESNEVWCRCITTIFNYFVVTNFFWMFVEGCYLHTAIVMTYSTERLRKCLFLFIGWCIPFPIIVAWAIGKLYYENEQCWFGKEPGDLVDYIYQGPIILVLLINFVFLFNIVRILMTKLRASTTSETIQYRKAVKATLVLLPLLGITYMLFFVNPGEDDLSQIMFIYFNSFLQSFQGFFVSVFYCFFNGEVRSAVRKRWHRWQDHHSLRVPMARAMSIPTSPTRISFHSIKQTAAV
T3 sequence (P24387 whole entry): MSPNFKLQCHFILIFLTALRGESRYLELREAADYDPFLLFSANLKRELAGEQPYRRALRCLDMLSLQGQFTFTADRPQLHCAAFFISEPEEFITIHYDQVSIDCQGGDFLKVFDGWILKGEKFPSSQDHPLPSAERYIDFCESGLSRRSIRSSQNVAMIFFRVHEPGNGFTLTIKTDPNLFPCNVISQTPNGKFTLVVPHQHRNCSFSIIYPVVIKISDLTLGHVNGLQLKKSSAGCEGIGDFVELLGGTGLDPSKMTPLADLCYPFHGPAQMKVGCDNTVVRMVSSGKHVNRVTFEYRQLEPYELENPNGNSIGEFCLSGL
The assay can be described thus: Dose Response confirmation of uHTS hits for small molecule antagonists of the CRF-binding protein and CRF-R2 receptor complex. The format is functional. The settings on record: read-out: IC50_Mean.

Assay [13] deals with T3, Corticotropin-releasing factor receptor 2/Corticotropin-releasing factor-binding protein. Nature of the assay: activators of CRF receptor 2 with binding protein – uHTS hits, confirmation (AID 602473). The format is functional. As to conditions: read-out: EC50_Mean.
Assay [14] addresses T4, Low molecular weight phosphotyrosine protein phosphatase (Homo sapiens, UniProt P24666).
T4 sequence (P24666 whole entry): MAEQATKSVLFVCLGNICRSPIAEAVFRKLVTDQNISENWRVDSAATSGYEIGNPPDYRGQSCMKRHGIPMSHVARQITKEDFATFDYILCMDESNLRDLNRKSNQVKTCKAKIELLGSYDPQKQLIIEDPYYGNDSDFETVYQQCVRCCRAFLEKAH
It counts as functional. The settings on record: read-out: IC50_Mean.

In assay [15] the target is T4, Low molecular weight phosphotyrosine protein phosphatase. It counts as functional. As to conditions: read-out: IC50_Mean. This is another data set of the same source.
Assay [16] concerns the target T5, ATP-dependent translocase ABCB1 (Homo sapiens, UniProt P08183). Nature of the assay: inhibition of BCRP-mediated JC-1 efflux – Ig-MXP3 cells, flow cytometry, set 2, dose response (AID 504566).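 Note: flow cytometry median green fluorescence of retained JC-1 dye; potency of efflux pump inhibition measured as rising substrate retention.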 The format is functional. The settings on record: read-out: EC50_MICROM_. (Flow cytometry measures light scatter and fluorescence of single cells or particles in a stream.)

Assay [17] deals with T5, ATP-dependent translocase ABCB1. Nature of the assay: P-gp JC-1 efflux blockade concentration-response – Jurkat-DNR cells, flow cytometry, set 2, dose response (AID 504569).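 Note: potency of pump inhibitors that raise cellular JC-1 green fluorescence up to the nicardipine level.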 The format is functional. The settings on record: read-out: EC50_MICROM_.

The source made the active and inactive calls. A value given as a limit tells only on which side of the number the result lay.

One may read the CC50 as the concentration at which the toxic effect on the cells reaches its halfway point. As usually defined, the AC50 is the concentration giving half of the maximal activity seen.
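Throughout, for Absolute IC50 (XBP1): confirmatory dose-response counter-screen serving a CHOP assay.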

T5 sequence (P08183 whole entry): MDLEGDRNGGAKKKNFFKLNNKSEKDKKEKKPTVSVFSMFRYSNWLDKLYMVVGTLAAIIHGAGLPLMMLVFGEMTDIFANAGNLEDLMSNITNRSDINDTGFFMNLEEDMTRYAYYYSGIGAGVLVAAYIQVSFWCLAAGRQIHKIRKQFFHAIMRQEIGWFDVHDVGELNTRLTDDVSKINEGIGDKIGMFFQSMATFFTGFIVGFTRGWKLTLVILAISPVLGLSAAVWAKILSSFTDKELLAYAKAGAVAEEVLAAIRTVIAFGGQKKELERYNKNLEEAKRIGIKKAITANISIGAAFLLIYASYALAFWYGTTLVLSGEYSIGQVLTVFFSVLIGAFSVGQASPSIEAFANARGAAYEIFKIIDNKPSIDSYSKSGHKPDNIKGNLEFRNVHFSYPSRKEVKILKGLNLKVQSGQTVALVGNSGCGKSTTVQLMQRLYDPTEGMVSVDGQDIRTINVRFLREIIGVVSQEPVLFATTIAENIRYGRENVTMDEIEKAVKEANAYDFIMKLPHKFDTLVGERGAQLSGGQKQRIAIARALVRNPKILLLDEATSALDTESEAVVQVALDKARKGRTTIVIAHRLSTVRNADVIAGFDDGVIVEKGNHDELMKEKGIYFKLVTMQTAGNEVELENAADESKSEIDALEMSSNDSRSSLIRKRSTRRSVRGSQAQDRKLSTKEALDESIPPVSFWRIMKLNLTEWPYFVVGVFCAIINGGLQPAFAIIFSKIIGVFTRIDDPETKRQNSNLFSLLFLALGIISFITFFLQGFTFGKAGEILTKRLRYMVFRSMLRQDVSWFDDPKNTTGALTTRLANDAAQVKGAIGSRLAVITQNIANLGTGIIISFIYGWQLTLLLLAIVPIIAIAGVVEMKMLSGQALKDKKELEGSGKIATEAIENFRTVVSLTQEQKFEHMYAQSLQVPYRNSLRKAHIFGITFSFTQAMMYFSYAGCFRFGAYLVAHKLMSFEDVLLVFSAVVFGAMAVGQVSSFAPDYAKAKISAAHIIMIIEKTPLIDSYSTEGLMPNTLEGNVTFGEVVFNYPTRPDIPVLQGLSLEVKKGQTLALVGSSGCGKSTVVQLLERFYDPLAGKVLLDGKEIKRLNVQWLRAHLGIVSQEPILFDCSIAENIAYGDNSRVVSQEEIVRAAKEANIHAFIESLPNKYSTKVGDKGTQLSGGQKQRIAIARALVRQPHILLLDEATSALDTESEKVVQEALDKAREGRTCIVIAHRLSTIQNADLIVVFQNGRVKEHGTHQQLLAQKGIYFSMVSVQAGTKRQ
Chain of Protein Wnt-3a (P27467 whole entry): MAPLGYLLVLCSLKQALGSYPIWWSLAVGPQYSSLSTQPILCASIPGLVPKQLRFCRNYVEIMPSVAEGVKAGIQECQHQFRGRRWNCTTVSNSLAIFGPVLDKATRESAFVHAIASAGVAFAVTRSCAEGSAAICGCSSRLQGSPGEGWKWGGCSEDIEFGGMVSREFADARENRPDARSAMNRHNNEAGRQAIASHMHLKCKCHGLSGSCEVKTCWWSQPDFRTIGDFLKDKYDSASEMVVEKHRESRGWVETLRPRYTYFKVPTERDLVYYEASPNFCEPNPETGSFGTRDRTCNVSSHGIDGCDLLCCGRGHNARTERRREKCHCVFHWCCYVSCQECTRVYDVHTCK
Chain of Melanocortin receptor 4 (P32245 whole entry): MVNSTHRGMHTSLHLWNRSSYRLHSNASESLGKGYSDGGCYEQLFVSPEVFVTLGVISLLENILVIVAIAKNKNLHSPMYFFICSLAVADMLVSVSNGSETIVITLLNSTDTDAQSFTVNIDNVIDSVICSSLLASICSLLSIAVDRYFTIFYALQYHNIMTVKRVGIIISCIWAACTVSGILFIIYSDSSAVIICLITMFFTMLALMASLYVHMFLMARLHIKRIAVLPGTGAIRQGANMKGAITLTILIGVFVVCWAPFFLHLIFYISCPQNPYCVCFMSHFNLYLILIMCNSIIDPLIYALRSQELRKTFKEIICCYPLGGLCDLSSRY

As to `Cc1c(CN2CCC(CO)(CCOc3ccccc3)CC2)[nH]c2c(Cl)cccc12`, the EC50 in the assay on HEK293 [1] was > 54.7 µM (inactive); at Insulin-degrading enzyme [4] it was 14.3 µM (inactive); on Insulin-degrading enzyme [5], > 54.7 µM (inactive); at Melanocortin receptor 4 it was > 89.2 µM (inactive). The CC50 in assay [2] was 14.5 µM (active); in assay [6] it was 16.3 µM (active); in assay [7], 12.4 µM (active). Besides, the IC50 with HEK293 [3] is 22.8 µM (inactive); in the assay “cells”, 6.5 µM (active). In addition, the “Absolute IC50 (XBP1)” value on X-box-binding protein 1 worked out at 10 µM.

Take `C=CCOC(=O)c1[nH]c2c(c1C)C(=O)CC(c1cc(OC)c(OC)c(OC)c1)C2` (stereo unspecified): the results for the AC50 in assay [8], in assay [9] and in assay [10] were 1.83 µM (active), 1.28 µM (active) and 53.5 µM (active), respectively. Besides, the IC50 on Protein Wnt-3a is 1.89 µM (active).

Consider `CCCOc1ccc(C(=O)N2CCN(c3ccc(NC(=O)CC)cc3Cl)CC2)cc1`, for which the figures for the IC50 in assay [11] and in assay [12] were 16.3 µM (active) and 16 µM (active), respectively. The EC50 in assay [13] is > 53 µM (inactive).

Turning to `COc1ccc(CN(C)C(=O)c2cccc(NC(=O)CC3SC(N4CCCCC4)=NC3=O)c2)c(OC)c1` (stereo unspecified), the IC50 on Protein Wnt-3a was 21.7 µM (inactive).

For the compound `COc1ccccc1CNc1nc(NCc2cnc(C)cn2)c2sccc2n1`, the IC50 in assay [14] was 5.74 µM (active); in [15] it was 4.31 µM (active).

In the case of `O=C(C1CCCCC1)N1CCN(c2cc(-c3ccccc3)nc3cc(-c4cccc(Cl)c4)nn23)CC1`, the EC50 was 1.75 µM (active) in [16] and 1.71 µM (active) in assay [17].

Regarding `O=C1C(=Cc2cn(-c3ccccc3)nc2-c2ccc(OCc3ccccc3F)cc2)SC(=S)N1CCS(=O)(=O)O`, the values for the IC50 in [14] and in [15] were 12.2 µM (active) and 4.12 µM (active), respectively.

For `COc1ccc(-c2cc3nc(C)cc(N4CCN(C(=O)c5ccco5)CC4)n3n2)cc1`, the EC50 in assay [16] was 1.52 µM (active); in [17] it was 4.78 µM (active).

Values taken from ChEMBL document CHEMBL1201862, “PubChem BioAssay data set” (2004).
